In brackets after ≈: the same amount, converted by molar mass. Several values for one entry are separate records, joined by “and”; a condition that tells them apart may be missing. Equal entries are not always repeated.
Assays:
Type in all cases: cell-based
[1] = tested on: Staphylococcus aureus ATCC 6538P; test: In vitro agar dilution MIC, organism code AA; settings: Table 1B, unit assumed
Protocol: (§1) Representative compounds of the present invention were assayed in vitro for antibacterial activity as follows: Twelve petri dishes containing successive aqueous dilutions of the test compound mixed with 10 mL of sterilized Brain Heart Infusion (BHI) agar (Difco 0418-01-5) were prepared. Each plate was inoculated with 1:100 (or 1:10 for slow-growing strains, such as Micrococcus and Streptococcus) dilutions of up to 32 different microorganisms, using a Steers replicator block. The inoculated plates were incubated at 35-37° C. for 20 to 24 hours. In addition, a control plate, using BHI agar containing no test compound, was prepared and incubated at the beginning and end of each test.
(§2) An additional plate containing a compound having known susceptibility patterns for the organisms being tested and belonging to the same antibiotic class as the test compound was also prepared and incubated as a further control, as well as to provide test-to-test comparability.
(§3) After incubation, each plate was visually inspected. The minimum inhibitory concentration (MIC) was defined as the lowest concentration of drug yielding no growth, a slight haze, or sparsely isolated colonies on the inoculum spot as compared to the growth control.

[2] = tested on: Staphylococcus aureus A5177; test: In vitro agar dilution MIC, organism code BB; settings: Table 1B, in µg/mL (unit assumed)
Protocol: as §1, §2, §3

[3] = tested on: Staphylococcus aureus A-5278; test: In vitro agar dilution MIC, organism code CC; settings: Table 1B, unit assumed
Protocol: as §1, §2, §3

[4] = tested on: Staphylococcus aureus CMX 642A; test: In vitro agar dilution MIC, organism code DD; settings: Table 1B, unit assumed
Protocol: as §1, §2, §3

[5] = tested on: Staphylococcus aureus NCTC10649M; test: In vitro agar dilution MIC, organism code EE; settings: Table 1B, unit assumed
Protocol: as §1, §2, §3

[6] = tested on: Staphylococcus aureus CMX 553; test: In vitro agar dilution MIC, organism code FF; settings: Table 1B, unit assumed
Protocol: as §1, §2, §3

[7] = tested on: Staphylococcus aureus 1775; test: In vitro agar dilution MIC, organism code GG; settings: Table 1B, unit assumed
Protocol: as §1, §2, §3

[8] = tested on: Staphylococcus epidermidis 3519; test: In vitro agar dilution MIC, organism code HH; settings: Table 1B, in µg/mL (unit assumed)
Protocol: as §1, §2, §3

[9] = tested on: Enterococcus faecium ATCC 8043; test: In vitro agar dilution MIC, organism code II; settings: Table 1B, unit assumed
Protocol: as §1, §2, §3

[10] = tested on: Streptococcus bovis A-5169; test: In vitro agar dilution MIC, organism code JJ; settings: Table 1B, unit assumed
Protocol: as §1, §2, §3

[11] = tested on: Streptococcus agalactiae CMX 508; test: In vitro agar dilution MIC, organism code KK; settings: Table 1B, unit assumed
Protocol: as §1, §2, §3

[12] = tested on: Streptococcus pyogenes EES61; test: In vitro agar dilution MIC, organism code LL; settings: unit assumed
Protocol: as §1, §2, §3

[13] = tested on: Streptococcus pyogenes 930; test: In vitro agar dilution MIC, organism code MM; settings: unit assumed
Protocol: as §1, §2, §3

[14] = tested on: Streptococcus pyogenes PIU 2548; test: In vitro agar dilution MIC, organism code NN; settings: unit assumed
Protocol: as §1, §2, §3

[15] = tested on: Micrococcus luteus ATCC 9341; test: In vitro agar dilution MIC, organism code OO; settings: Table 1B, unit assumed
Protocol: as §1, §2, §3

[16] = tested on: Micrococcus luteus ATCC 4698; test: In vitro agar dilution MIC, organism code PP; settings: Table 1B, in µg/mL (unit assumed)
Protocol: as §1, §2, §3

Escherichia coli JUHL = test: In vitro agar dilution MIC, organism code QQ; settings: Table 1B, in µg/mL (unit assumed)
Protocol: as §1, §2, §3

Escherichia coli SS = test: In vitro agar dilution MIC, organism code RR; settings: Table 1B, in µg/mL (unit assumed)
Protocol: as §1, §2, §3

Escherichia coli DC-2 = test: In vitro agar dilution MIC, organism code SS; settings: Table 1B, unit assumed
Protocol: as §1, §2, §3

Candida albicans CCH 442 = test: In vitro agar dilution MIC, organism code TT; settings: Table 1B, unit assumed
Protocol: as §1, §2, §3

[17] = tested on: Mycobacterium smegmatis ATCC 114; test: In vitro agar dilution MIC, organism code UU; settings: Table 1B, in µg/mL (unit assumed)
Protocol: as §1, §2, §3

[18] = tested on: Nocardia asteroides ATCC 9970; test: In vitro agar dilution MIC, organism code VV; settings: Table 1B, in µg/mL (unit assumed)
Protocol: as §1
as §2, with “comparability. Erythromycin A was used for this purpose.” for “comparability.”
as §3

[19] = tested on: Haemophilis influenzae DILL AMP R; test: In vitro agar dilution MIC, organism code WW; settings: unit assumed
Protocol: as §1, §2, §3

[20] = tested on: Streptococcus pneumoniae ATCC 6303; test: In vitro agar dilution MIC, organism code XX; settings: unit assumed
Protocol: as §1, §2, §3

[21] = tested on: Streptococcus pneumoniae GYR 1171; test: In vitro agar dilution MIC, organism code YY; settings: Table 1B, unit assumed
Protocol: as §1, §2, §3

[22] = tested on: Streptococcus pneumoniae 5979; test: In vitro agar dilution MIC, organism code ZZ; settings: unit assumed
Protocol: as §1, §2, §3

[23] = tested on: Streptococcus pneumoniae 5649; test: In vitro agar dilution MIC, organism code ZZA; settings: unit assumed
Protocol: as §1, §2, §3

Compound	MIC [1]	MIC [2]	MIC [3]	MIC [4]	MIC [5]	MIC [6]	MIC [7]	MIC [8]	MIC [9]	MIC [10]	MIC [11]	MIC ([12]; Table 1B)	MIC ([13]; Table 1B)	MIC [15]	MIC [16]	MIC (Escherichia coli JUHL)	MIC (Escherichia coli SS)	MIC (Escherichia coli DC-2)	MIC (Candida albicans CCH 442)	MIC [17]	further results
CC[C@H]1OC(=O)C(C)(F)C(=O)[C@H](C)[C@@H](O[C@@H]2O[C@H](C)C[C@H](N(C)C)[C@H]2O)[C@](C)(OCC#Cc2ccc(-c3cccs3)s2)C[C@@H](C)C(=O)[C@H](C)[C@H]2NC(=O)O[C@@]21C (stereo partly drawn) [Example 28]	0.05 mg/L (≈ 0.061 µM)	0.1	> 100 mg/L	0.1 mg/L (≈ 0.122 µM)	0.2 mg/L (≈ 0.244 µM)	0.1 mg/L (≈ 0.122 µM)	> 100 mg/L	0.1	0.05 mg/L (≈ 0.061 µM)	0.01 mg/L (≈ 0.0122 µM)	0.02 mg/L (≈ 0.0244 µM)	0.02 mg/L (≈ 0.0244 µM)	0.78 mg/L (≈ 0.952 µM)	0.02 mg/L (≈ 0.0244 µM)	0.05	100	0.78	100 mg/L (≈ 122 µM)	> 100 mg/L	0.39	MIC ([14]; Table 1B): 0.2 mg/L (≈ 0.244 µM); MIC [18]: 0.02; MIC ([19]; Table 1B): 2 mg/L (≈ 2.44 µM); MIC ([20]; Table 1B): ≤ 0.004 mg/L; MIC [21]: ≤ 0.004 mg/L; MIC ([22]; Table 1B): 16 mg/L (≈ 19.5 µM); MIC ([23]; Table 1B): 0.25 mg/L (≈ 0.305 µM)
CC[C@H]1OC(=O)[C@H](C)[C@@H](O[C@H]2C[C@@](C)(OC)[C@@H](O)[C@H](C)O2)[C@H](C)[C@@H](O[C@@H]2O[C@H](C)C[C@H](N(C)C)[C@H]2O)[C@](C)(O)C[C@@H](C)C(=O)[C@H](C)[C@@H](O)[C@]1(C)O [Ery. A, Erythromycin A, reference compound]	0.2 mg/L (≈ 0.273 µM)	3.1 and 6.2	> 100 mg/L	0.39 mg/L (≈ 0.531 µM)	0.39 mg/L (≈ 0.531 µM)	0.39 mg/L (≈ 0.531 µM)	> 100 mg/L	0.39 and 0.2	0.05 mg/L (≈ 0.0681 µM)	0.02 mg/L (≈ 0.0273 µM)	0.05 mg/L (≈ 0.0681 µM)	0.02 mg/L (≈ 0.0273 µM)	> 100 mg/L	0.02 mg/L (≈ 0.0273 µM)	0.2 and 0.39	> 100 and 50	0.78 and 0.39	> 100 mg/L	> 100 mg/L	3.1 and 6.2	MIC [18]: 0.1 and 0.05; MIC ([19]; Table 1B): 4 mg/L (≈ 5.45 µM); MIC ([20]; Table 1B): 0.06 mg/L (≈ 0.0818 µM); MIC [21]: 0.06 mg/L (≈ 0.0818 µM); MIC ([23]; Table 1B): 16 mg/L (≈ 21.8 µM)
CC[C@H]1OC(=O)[C@H](C)C(=O)[C@H](C)[C@@H](O[C@@H]2O[C@H](C)C[C@H](N(C)C)[C@H]2O)[C@](C)(OC/C=C/c2ccccc2)C[C@@H](C)C(=O)[C@H](C)[C@H]2NC(=O)O[C@@]21C [Standard B, reference compound]	–	–	–	–	–	–	–	–	–	–	–	–	–	–	–	–	–	–	–	–	MIC ([12]; Table 1D): 0.03 mg/L (≈ 0.042 µM); MIC ([13]; Table 1D): 64 mg/L (≈ 89.5 µM); MIC ([14]; Table 1D): 0.25 mg/L (≈ 0.35 µM); MIC ([19]; Table 1D): 4 mg/L (≈ 5.6 µM); MIC ([20]; Table 1D): 0.03 mg/L (≈ 0.042 µM); MIC ([22]; Table 1D): 128 mg/L (≈ 179 µM); MIC ([23]; Table 1D): 0.25 mg/L (≈ 0.35 µM)
CC[C@H]1OC(=O)[C@@](C)(F)C(=O)[C@H](C)[C@@H](O[C@@H]2O[C@H](C)C[C@H](N(C)C)[C@H]2O)[C@](C)(OC/C=C/c2ccc3nccnc3c2)C[C@@H](C)C(=O)[C@H](C)[C@H]2NC(=O)O[C@@]21C [Example 12]	0.05 mg/L (≈ 0.0637 µM)	0.05	> 100 mg/L	0.05 mg/L (≈ 0.0637 µM)	0.05 mg/L (≈ 0.0637 µM)	0.05 mg/L (≈ 0.0637 µM)	> 100 mg/L	0.05	0.01 mg/L (≈ 0.0127 µM)	≤ 0.005 mg/L	0.01 mg/L (≈ 0.0127 µM)	0.01 mg/L (≈ 0.0127 µM)	0.2 mg/L (≈ 0.255 µM)	≤ 0.005 mg/L	0.05	12.5	0.1	12.5 mg/L (≈ 15.9 µM)	> 100 mg/L	0.2	MIC ([12]; Table 1D): ≤ 0.04 mg/L; MIC ([13]; Table 1D): 0.5 mg/L (≈ 0.637 µM); MIC ([14]; Table 1B): 0.05 mg/L (≈ 0.0637 µM); MIC ([14]; Table 1D): 0.125 mg/L (≈ 0.159 µM); MIC [18]: ≤ 0.005; MIC ([19]; Table 1B): 2 mg/L (≈ 2.55 µM); MIC ([19]; Table 1D): 2 mg/L (≈ 2.55 µM); MIC ([20]; Table 1B): ≤ 0.004 mg/L; MIC ([20]; Table 1D): ≤ 0.004 mg/L; MIC [21]: ≤ 0.004 mg/L; MIC ([22]; Table 1B): 1 mg/L (≈ 1.27 µM); MIC ([22]; Table 1D): 1 mg/L (≈ 1.27 µM); MIC ([23]; Table 1B): 0.125 mg/L (≈ 0.159 µM); MIC ([23]; Table 1D): 0.125 mg/L (≈ 0.159 µM)

— US6124269A, “2-Halo-6-O-substituted ketolide derivatives” (priority 1998, dated 2000)
